# Results published in USRE46792E1, “Oxazole compound and pharmaceutical composition” (Otsuka Pharmaceutical Co., Ltd., priority 2005, dated 2018).
# Molecular target: human PDE4D3 (PDE4D) (Homo sapiens (Human), UniProt Q08499)
# Assay: Phosphodiesterase (PDE)4 inhibitory activity evaluation test ([3H]cAMP hydrolysis by PDE4D enzyme solution)
# Format: biochemical
# Settings: recombinant human PDE4D3 expressed in COS-7 cells; [3H]cAMP substrate; 10 min at 30° C.; 2% DMSO
# From the text: Phosphodiesterase (PDE)4 Inhibitory Activity Evaluation Test
# (1) Large Scale Plasmid Preparation
# Plasmid containing genes (HPDE4D) coding for human PDE4D3 cDNA (stored in Otsuka America Pharmaceutical, Inc., Maryland Research Laboratories) was transformed in E. coli, cultured on a large scale, and purified using an EndoFree™ Plasmid Maxi Kit (Qiagen).
# (2) Abundant Expression and Purification of PDE4D
# COS-7 cells derived from African green monkey kidneys were passage cultured in D-MEM media containing 100 units/ml penicillin, 100 μg/ml streptomycin, and 10% FBS. The cells were transfected with the plasmid prepared in (1) above using Lipofectamine™ 2000 (hereinafter referred to as “LF2000”, Invitrogen), following the manufacturer's protocol. The COS-7 cells were inoculated in a 10 cm culture dish on the previous day so as to be 90% confluent on the day of transfection. Culture dishes each containing a plasmid solution (solution A) in which 24 μg of plasmid was diluted in 1.5 ml Opti-MEM I Reduced Serum Medium (Invitrogen) and an LF2000 solution (solution B) in which 60 μl of LF2000 was diluted in 1.5 ml Opti-MEM I Reduced Serum Medium were separately allowed to stand for 5 minutes at room temperature. Solutions A and B were then mixed and the mixture was allowed to stand for 20 minutes at room temperature. The mixture was added to the cultured cells, and incubated at 37° C. (5% CO2) overnight. On the following day, the medium was replaced, and the mixture was further incubated overnight to harvest the cells in the following manner. The cells were washed with PBS (Sigma) once, and 10 ml of a Trypsin-EDTA solution (Sigma) was added to each culture dish. After the solution was distributed to each of the culture dishes, the cells were detached, and the dishes were allowed to stand for about 5 minutes at 37° C. The detached cells from the dishes were suspended in media, collected into centrifuge tubes, and centrifuged at 1200 rpm for 5 minutes at 4° C., and supernatants were removed. The cells were further washed with PBS, and stored at −80° C. KHEM buffer (100 mM Hepes, 50 mM KCl, 10 mM EGTA, 1.92 mM MgCl2, pH 7.4) containing 1 mM DTT, 1 μg/ml antipain, 1 μg/ml aprotinin, 1 μg/ml leupeptin, 1 μg/ml pepstatin A, 157 μg/ml benzamidine, and 120 μg/ml Pefabloc SC was added to the stored cells, and the contents were moved to a glass homogenizer to be homogenized on ice. The cell suspension was centrifuged at 1000 rpm for 5 minutes at 4° C., and the supernatant was further centrifuged at 14000 rpm for one hour. After centrifugation, the supernatant was dispensed into new tubes as PDE4D enzyme solutions, and stored in a deep freezer.
# (3) Determination on Dilution Ratio of PDE4D Enzyme Solutions
# The PDE4D enzyme solutions prepared in (2) above were dissolved in 20 mM Tris-HCl solution (pH 7.4) to give 10-, 25-, 50-, 100-, 200-, 400-, and 800-fold dilutions of the enzyme solutions. PDE4D activities were measured according to (4) below. The percentage of catalyzed cAMP to total cAMP was calculated, and such a dilution, in which the percentage was between 10% and 30%, was adopted in the inhibitory study below.
# (4) Measurement of PDE4D Inhibitory Activity
# Necessary amounts of test compounds were weighed, and 100% dimethylsulfoxide (DMSO) was added thereto to adjust the concentration to 10 mM. The solutions were stored in a freezer as stock solutions of each test compound. After being thawed when required, the solutions were diluted 20-fold with 100% DMSO to give a 500 μM concentration. Further, 10-fold serial dilutions were made with 100% DMSO to prepare test compounds of different concentrations. 2 μl of solutions containing one of each of the test compound were separately added into 1.2 ml tubes in which 23 μl of 20 mM Tris-HCl (pH 7.4) had been placed beforehand. […]
# Chain of human PDE4D3 (PDE4D) (Q08499 other isoform, or with tags, fused parts or gaps): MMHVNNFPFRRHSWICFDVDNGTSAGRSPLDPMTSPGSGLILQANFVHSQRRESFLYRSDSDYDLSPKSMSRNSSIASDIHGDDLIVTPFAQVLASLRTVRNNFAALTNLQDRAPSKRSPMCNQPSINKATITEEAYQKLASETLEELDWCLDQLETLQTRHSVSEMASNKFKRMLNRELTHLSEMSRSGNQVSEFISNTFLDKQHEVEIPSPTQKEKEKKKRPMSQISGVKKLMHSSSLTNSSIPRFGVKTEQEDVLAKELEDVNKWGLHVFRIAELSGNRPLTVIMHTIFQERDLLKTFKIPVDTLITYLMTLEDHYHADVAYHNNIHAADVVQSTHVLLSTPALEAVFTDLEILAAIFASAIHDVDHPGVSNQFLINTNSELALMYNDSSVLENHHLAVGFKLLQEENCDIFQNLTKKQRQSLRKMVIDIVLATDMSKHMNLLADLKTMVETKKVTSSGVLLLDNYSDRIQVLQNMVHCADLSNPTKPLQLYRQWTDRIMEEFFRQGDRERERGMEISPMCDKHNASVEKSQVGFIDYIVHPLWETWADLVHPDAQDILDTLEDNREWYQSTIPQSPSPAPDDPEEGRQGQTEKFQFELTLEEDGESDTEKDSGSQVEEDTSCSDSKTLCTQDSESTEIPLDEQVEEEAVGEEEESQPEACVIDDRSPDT
row,Molecule,IC50 [nM]
1,3-[2-(3-hydroxy-4-methoxyphenyl)oxazol-4-yl]-1-(2-methoxymethoxy phenyl)propan-1-one [Example 232],< 50
2,"CCOc1ccccc1C(=O)NCc1coc(-c2ccc(OC)c(OCC(C)C)c2)n1 [Example 14, N-[2-(3-isobutoxy-4-methoxyphenyl)oxazol-4-ylmethyl]-2-ethoxy benzamide]",< 50
3,"COc1ccc(-c2nc(CNC(=O)c3ncccc3C)co2)cc1OCC(F)(F)F [Example 19, N-{2-[4-methoxy-3-(2,2,2-trifluoroethoxy)phenyl]oxazol-4-ylmethyl}-3-methylpicolinamide]",< 50
4,"C=CCOc1cc(-c2nc(CNC(=O)c3ncccc3C)co2)ccc1OC [Example 21, N-[2-(3-allyloxy-4-methoxyphenyl)oxazol-4-ylmethyl]-3-methylpicolinamide]",< 50
5,"COc1ccc(-c2nc(CNC(=O)c3ncccc3C)co2)cc1OC1Cc2ccccc2C1 [Example 22, N-{2-[3-(indan-2-yloxy)-4-methoxyphenyl]oxazol-4-ylmethyl}-3-methylpicolinamide]",< 50
6,"CCOc1cccnc1C(=O)NCc1coc(-c2ccc(OC)c(OC3CCCC3)c2)n1 [Example 29, N-[2-(3-cyclopentyloxy-4-methoxyphenyl)oxazol-4-ylmethyl]-3-ethoxypicolinamide]",< 50
7,"COc1ccc(-c2nc(CNC(=O)c3ccccc3OCC(F)(F)F)co2)cc1OCC1CC1 [Example 32, N-[2-(3-cyclopropylmethoxy-4-methoxyphenyl)oxazol-4-ylmethyl]-2-(2,2,2-trifluoroethoxy)benzamide]",< 50
8,"COc1ccc(-c2nc(CNC(=O)c3ccccc3OC)co2)cc1OC1CCCC1 [Example 35, N-[2-(3-cyclopentyloxy-4-methoxyphenyl)oxazol-4-ylmethyl]-2-methoxybenzamide]",< 50
9,"COc1ccc(-c2nc(CNC(=O)c3ncccc3C)co2)cc1OCC1CC1 [Example 36, N-[2-(3-cyclopropylmethoxy-4-methoxyphenyl)oxazol-4-ylmethyl]-3-methylpicolinamide]",< 50
10,"COc1ccc(-c2nc(CNC(=O)c3ccc(F)cc3OC)co2)cc1OCC1CC1 [Example 42, N-[2-(3-cyclopropylmethoxy-4-methoxyphenyl)oxazol-4-ylmethyl]-4-fluoro-2-methoxybenzamide]",< 50
11,"COc1ccc(-c2nc(CNC(=O)c3ccccc3SC)co2)cc1OCC1CC1 [Example 44, N-[2-(3-cyclopropylmethoxy-4-methoxyphenyl)oxazol-4-ylmethyl]-2-methylsulfanylbenzamide]",< 50
12,CCCOc1cccnc1C(=O)NCc1coc(-c2ccc(OC)c(OCC3CC3)c2)n1 [Example 61],< 50
13,"COc1ccc(-c2nc(CNC(=O)c3ncccc3C)co2)cc1OCC(C)C [Example 62, N-[2-(3-isobutoxy-4-methoxyphenyl)oxazol-4-ylmethyl]-3-methylpicolinamide]",< 50
14,"COc1ccc(-c2nc(CNC(=O)c3ccccc3OC)co2)cc1OCC(C)C [Example 63, N-[2-(3-isobutoxy-4-methoxyphenyl)oxazol-4-ylmethyl]-2-methoxybenzamide]",< 50
15,"Cc1cccnc1C(=O)NCc1coc(-c2ccc(OC(F)F)c(OCC3CC3)c2)n1 [Example 98, N-[2-(3-cyclopropylmethoxy-4-difluoromethoxyphenyl)oxazol-4-ylmethyl]-3-methylpicolinamide]",< 50
16,"CCOc1ccccc1C(=O)CCc1coc(-c2ccc(OC)c(OCC3CC3)c2)n1 [Example 102, 3-[2-(3-cycropropylmethoxy-4-methoxyphenyl)oxazol-4-yl]-1-(2-ethoxyphenyl)propan-1-one]",< 50

row,Molecule,IC50 [nM]
1,"CCOc1cc(-c2nc(CCC(=O)c3ccccc3OCC)co2)ccc1OC [Example 103, 3-[2-(3-ethoxy-4-methoxyphenyl)oxazol-4-yl]-1-(2-ethoxyphenyl)propan-1-one]",< 50
2,"C=CCOc1cc(-c2nc(CCC(=O)c3ccccc3OCC)co2)ccc1OC [Example 104, 3-[2-(3-allyloxy-4-methoxyphenyl)oxazol-4-yl]-1-(2-ethoxyphenyl)propan-1-one]",< 50
3,"C=CCCOc1cc(-c2nc(CCC(=O)c3ccccc3OCC)co2)ccc1OC [Example 108, 3-[2-(3-(3-butenyloxy)-4-methoxyphenyl)oxazol-4-yl]-1-(2-ethoxyphenyl)propan-1-one]",< 50
4,"CCOc1ccccc1C(=O)CCc1coc(-c2ccc(OC)c(OC(C)C)c2)n1 [Example 111, 1-(2-ethoxyphenyl)-3-[2-(3-isopropoxy-4-methoxyphenyl)oxazol-4-yl]propan-1-one]",< 50
5,"CCOc1ccccc1C(=O)CCc1coc(-c2ccc(OC)c(OCC(F)(F)F)c2)n1 [Example 112, 1-(2-ethoxyphenyl)-3-{2-[4-methoxy-3-(2,2,2-trifluoroethoxy)phenyl]oxazol-4-yl}propan-1-one]",< 50
6,"CCOc1ccccc1C(=O)CCc1coc(-c2ccc(OC)c(OCC3CCC3)c2)n1 [Example 116, 3-[2-(3-cyclobutylmethoxy-4-methoxyphenyl)oxazol-4-yl]-1-(2-ethoxyphenyl)propan-1-one]",< 50
7,"COc1ccc(-c2nc(CCC(=O)c3ncccc3OC)co2)cc1OCC(F)(F)F [Example 129, 1-(3-methoxypyridin-2-yl)-3-{2-[4-methoxy-3-(2,2,2-trifluoroethoxy)phenyl]oxazol-4-yl}propan-1-one]",< 50
8,"CCOc1cccnc1C(=O)CCc1coc(-c2ccc(OC)c(OC3CCCC3)c2)n1 [Example 132, 3-[2-(3-cyclopentyloxy-4-methoxyphenyl)oxazol-4-yl]-1-(3-ethoxypyridin-2-yl)propan-1-one]",< 50
9,"CCOc1cccnc1C(=O)CCc1coc(-c2ccc(OC)c(OCC3CC3)c2)n1 [Example 133, 3-[2-(3-cyclopropylmethoxy-4-methoxyphenyl)oxazol-4-yl]-1-(3-ethoxypyridin-2-yl)propan-1-one]",< 50
10,"COc1ccc(-c2nc(CCC(=O)c3ncccc3C)co2)cc1OCC1CC1 [Example 137, 3-[2-(3-cyclopropylmethoxy-4-methoxyphenyl)oxazol-4-yl]-1-(3-methylpyridin-2-yl)propan-1-one]",< 50
11,"CCOc1cc(-c2nc(CCC(=O)c3ncccc3C)co2)ccc1OC [Example 138, 3-[2-(3-ethoxy-4-methoxyphenyl)oxazol-4-yl]-1-(3-methylpyridin-2-yl)propan-1-one]",< 50
12,"COc1ccc(-c2nc(CCC(=O)c3ncccc3C)co2)cc1OC(C)C [Example 139, 3-[2-(3-isopropoxy-4-methoxyphenyl)oxazol-4-yl]-1-(3-methylpyridin-2-yl)propan-1-one]",< 50
13,"C=CCOc1cc(-c2nc(CCC(=O)c3ncccc3C)co2)ccc1OC [Example 140, 3-[2-(3-allyloxy-4-methoxyphenyl)oxazol-4-yl]-1-(3-methylpyridin-2-yl)propan-1-one]",< 50
14,"COc1ccc(-c2nc(CCC(=O)c3ncccc3C)co2)cc1OCC1CCC1 [Example 141, 3-[2-(3-cyclobutylmethoxy-4-methoxyphenyl)oxazol-4-yl]-1-(3-methylpyridin-2-yl)propan-1-one]",< 50
15,"CCCOc1cc(-c2nc(CCC(=O)c3ncccc3C)co2)ccc1OC [Example 143, 3-[2-(4-methoxy-3-propoxyphenyl)oxazol-4-yl]-1-(3-methylpyridin-2-yl)propan-1-one]",< 50
